Results: patent US20230295260A1, “GLP RECEPTOR AGONISTS” (HEPTARES THERAPEUTICS LIMITED, priority 2020, published 2023)
pEC50: −log10 of the molar value. Like-named read-outs stand apart in the source and are kept apart here. Starred links: 1 amine or outer side, 2 acyl side, 3 side chain; linkers in the order of their positions; H or OH if unused. Non-standard residues stand in square brackets, D forms with d. Residues, ends and D or L forms follow the SMILES beside them. Groups on a side chain read outwards from the residue. *: point of attachment. Malonyl(2,2-Me2,histaminyl) = CC(C)(C(=O)NCCc1cnc[nH]1)C(=O)*; Ala(1H-tetrazol-5-yl) = N[C@@H](Cc1nnn[nH]1)C(=O)O; C18 diacid = O=C(O)CCCCCCCCCCCCCCCCC(=O)*; γGlu = O=C(O)[C@H](CCC(=O)[*:2])N[*:1]; αMeF = C[C@](N)(Cc1ccccc1)C(=O)O; αMeL = CC(C)C[C@](C)(N)C(=O)O; Nle = CCCC[C@H](N)C(=O)O; AEEA = NCCOCCOCC(=O)O; Aib = CC(C)(N)C(=O)O; Alloc = C=CCOC(=O)*

Assays:
human GLP1 receptor = target: T1, human GLP1 receptor (Homo sapiens, UniProt P43220); assay: cAMP accumulation assay (HTRF), functional agonism of human GLP1 receptor in HEK cells; type: cell-based; conditions: for EC50: read-out: Human GLP-1R agonist cAMP pEC50 (converted)
T1 construct: expressed in transfected cells; host or cells: HEK cells, BacMam virus transduction
Description: (§1) The functional activity of the peptides were assessed using a HTRF cAMP assay. pEC50 values are quoted.
(§2) cAMP production upon agonist stimulation of human GLP2 or GLP1 receptor was assessed utilizing HiRange cAMP kit (Cisbio). In brief, HEK cells were infected with either human GLP2 or GLP1 receptor BacMam virus for 24 hours and frozen for later use in the assay. […] Cells were prepared in the assay buffer (HBSS (Lonza) supplemented with 0.5 mM IBMX (Tocris)). After 45 min incubation at 37° C., the reaction was stopped by addition of the HTRF detection reagents in the lysis buffer provided in the kit.

human GLP2 receptor = target: T2, human GLP2 receptor (Homo sapiens, UniProt O95838); assay: cAMP accumulation assay (HTRF), functional agonism of human GLP2 receptor in HEK cells; conditions: for Emax: HEK293, read-out: Human GLP-2R agonist cAMP Emax;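 for all read-outs here: HEK cells transduced via BacMam to express human GLP2 receptor, agonist-stimulated cAMP measured by HTRF after 45 min at 37 °C in HBSS with 0.5 mM IBMX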
T2 sequence (O95838 1-553): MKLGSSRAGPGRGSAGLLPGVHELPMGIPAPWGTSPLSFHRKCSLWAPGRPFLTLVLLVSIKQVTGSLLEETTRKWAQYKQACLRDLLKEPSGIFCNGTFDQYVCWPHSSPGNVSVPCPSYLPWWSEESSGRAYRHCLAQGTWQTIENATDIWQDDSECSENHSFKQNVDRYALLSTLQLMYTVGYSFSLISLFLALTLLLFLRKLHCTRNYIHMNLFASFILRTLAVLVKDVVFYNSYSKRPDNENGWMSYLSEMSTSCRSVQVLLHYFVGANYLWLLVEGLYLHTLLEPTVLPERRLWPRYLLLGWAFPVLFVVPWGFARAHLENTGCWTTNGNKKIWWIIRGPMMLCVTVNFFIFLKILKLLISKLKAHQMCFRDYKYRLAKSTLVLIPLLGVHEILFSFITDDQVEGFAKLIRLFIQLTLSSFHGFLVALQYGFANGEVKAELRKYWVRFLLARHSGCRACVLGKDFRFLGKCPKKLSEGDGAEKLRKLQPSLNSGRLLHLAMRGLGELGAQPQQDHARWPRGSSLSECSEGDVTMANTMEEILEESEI
Description: as §1, §2

[1] = HEK293, HEK cells, human GLP1 receptor BacMam, 45 min 37° C., read-out: Human GLP-1R agonist cAMP Emax
[2] = HEK cells, human GLP1 receptor BacMam, 45 min 37° C.

T1 sequence (P43220 24-463): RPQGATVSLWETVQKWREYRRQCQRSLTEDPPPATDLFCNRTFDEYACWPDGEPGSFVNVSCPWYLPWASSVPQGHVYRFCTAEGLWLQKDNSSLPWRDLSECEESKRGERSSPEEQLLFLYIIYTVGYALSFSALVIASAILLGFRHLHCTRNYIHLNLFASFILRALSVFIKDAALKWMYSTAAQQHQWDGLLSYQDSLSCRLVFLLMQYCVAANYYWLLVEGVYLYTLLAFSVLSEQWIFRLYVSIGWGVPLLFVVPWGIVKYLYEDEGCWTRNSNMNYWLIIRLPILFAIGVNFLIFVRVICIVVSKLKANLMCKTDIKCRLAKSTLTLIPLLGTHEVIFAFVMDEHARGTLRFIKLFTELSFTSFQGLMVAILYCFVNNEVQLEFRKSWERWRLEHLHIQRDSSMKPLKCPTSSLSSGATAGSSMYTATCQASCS

Row | Emax (human GLP1 receptor; [1]) [%] | EC50 (human GLP1 receptor; [2]) [pM] | pEC50 (human GLP2 receptor) | Emax (human GLP2 receptor) [%] | Compound | Emax (human GLP1 receptor; HEK293, read-out: Human GLP-1R agonist cAMP Emax) [%]
1 | 89.8 | 12600 | 10.50 | 103 | CCCC[C@H](NC(=O)[C@H](CCC(=O)O)NC(=O)[C@H](CC(=O)O)NC(=O)[C@H](CO)NC(=O)[C@H](Cc1ccccc1)NC(=O)[C@H](CO)NC(=O)CNC(=O)[C@H](Cc1nn[nH]n1)NC(=O)C(C)(C)C(=O)NCCc1c[nH]cn1)C(=O)N[C@H](Cc1ccccc1)C(=O)N[C@H](C(=O)N[C@H](C(=O)N[C@@H](CC(C)C)C(=O)N[C@@H](CC(=O)O)C(=O)N[C@@H](CC(C)C)C(=O)N[C@@H](CCCCNC(=O)CC[C@H](NC(=O)COCCOCCNC(=O)COCCOCCNC(=O)CCCCCCCCCCCCCCCCC(=O)O)C(=O)O)C(=O)N[C@@H](C)C(=O)N[C@@H](C)C(=O)N[C@@H](CCCCN)C(=O)N[C@@H](CC(=O)O)C(=O)N[C@@H](Cc1ccccc1)C(=O)N[C@H](C(=O)N[C@@H](CC(N)=O)C(=O)N[C@@H](Cc1c[nH]c2ccccc12)C(=O)N[C@@H](CC(C)C)C(=O)N[C@H](C(=O)N[C@@H](CCC(N)=O)C(=O)N[C@H](C(=O)N[C@@H](CCCCN)C(=O)N[C@H](C(=O)N[C@H](C(=O)N[C@@H](Cc1ccccc1)C(N)=O)[C@@H](C)O)[C@@H](C)CC)[C@@H](C)O)[C@@H](C)CC)[C@@H](C)CC)[C@@H](C)CC)[C@@H](C)O [Example 23] ({Malonyl(2,2-Me2,histaminyl)}-[Ala(1H-tetrazol-5-yl)]GSFSDE[Nle][dF]TILDLK([γGlu-AEEA-AEEA-C18 diacid])AAKDFINWLIQTKITF-NH2) | 
2 | 96.1 | 12600 | 11.00 | 101 | C=CCOC(=O)NCCCC[C@H](NC(=O)[C@H](C)NC(=O)[C@H](C)NC(=O)[C@H](CCCCNC(=O)OCC=C)NC(=O)[C@H](CC(C)C)NC(=O)[C@H](CC(=O)O)NC(=O)[C@H](CC(C)C)NC(=O)[C@@H](NC(=O)[C@@H](NC(=O)[C@@H](Cc1ccccc1)NC(=O)[C@H](CCCC)NC(=O)[C@H](CCC(=O)O)NC(=O)[C@H](CC(=O)O)NC(=O)[C@H](CO)NC(=O)[C@H](Cc1ccccc1)NC(=O)[C@H](CO)NC(=O)CNC(=O)[C@H](Cc1nn[nH]n1)NC(=O)C(C)(C)C(=O)NCCc1c[nH]cn1)[C@@H](C)O)[C@@H](C)CC)C(=O)N[C@@H](CC(=O)O)C(=O)N[C@@H](Cc1ccccc1)C(=O)N[C@H](C(=O)N[C@@H](CC(N)=O)C(=O)N[C@@H](Cc1c[nH]c2ccccc12)C(=O)N[C@@H](CC(C)C)C(=O)N[C@H](C(=O)N[C@@H](CCC(N)=O)C(=O)N[C@H](C(=O)N[C@@H](CCCCN)C(=O)N[C@H](C(=O)N[C@H](C(=O)N[C@@H](CC(=O)O)C(N)=O)[C@@H](C)O)[C@@H](C)CC)[C@@H](C)O)[C@@H](C)CC)[C@@H](C)CC [Example 14] ({Malonyl(2,2-Me2,histaminyl)}-[Ala(1H-tetrazol-5-yl)]GSFSDE[Nle][dF]TILDLK(Alloc)AAK(Alloc)DFINWLIQTKITD-NH2) | 
3 | 92.7 | 2510 | 11.00 | 102 | C=CCOC(=O)NCCCC[C@H](NC(=O)[C@](C)(CC(C)C)NC(=O)[C@H](CC(=O)O)NC(=O)[C@H](CC(C)C)NC(=O)[C@@H](NC(=O)[C@@H](NC(=O)[C@@H](Cc1ccccc1)NC(=O)[C@H](CCCC)NC(=O)[C@H](CCC(=O)O)NC(=O)[C@H](CC(=O)O)NC(=O)[C@H](CO)NC(=O)[C@H](Cc1ccccc1)NC(=O)[C@H](CO)NC(=O)CNC(=O)[C@H](Cc1nn[nH]n1)NC(=O)C(C)(C)C(=O)NCCc1c[nH]cn1)[C@@H](C)O)[C@@H](C)CC)C(=O)N[C@@H](C)C(=O)N[C@@H](C)C(=O)N[C@@H](CCCCN)C(=O)N[C@@H](CC(=O)O)C(=O)N[C@@H](Cc1ccccc1)C(=O)N[C@H](C(=O)N[C@@H](CC(N)=O)C(=O)N[C@@H](Cc1c[nH]c2ccccc12)C(=O)N[C@@H](CC(C)C)C(=O)N[C@H](C(=O)N[C@@H](CCC(N)=O)C(=O)N[C@H](C(=O)N[C@@H](CCCCN)C(=O)N[C@H](C(=O)N[C@H](C(=O)N[C@@H](CC(=O)O)C(N)=O)[C@@H](C)O)[C@@H](C)CC)[C@@H](C)O)[C@@H](C)CC)[C@@H](C)CC [Example 19] ({Malonyl(2,2-Me2,histaminyl)}-[Ala(1H-tetrazol-5-yl)]GSFSDE[Nle][dF]TILD[αMeL]K(Alloc)AAKDFINWLIQTKITD-NH2) | 
4 | 95.4 | 1580 | 10.90 | 102 | C=CCOC(=O)NCCCC[C@H](NC(=O)[C@H](CC(C)C)NC(=O)[C@H](CC(=O)O)NC(=O)[C@H](CC(C)C)NC(=O)[C@@H](NC(=O)[C@@H](NC(=O)[C@@H](Cc1ccccc1)NC(=O)[C@H](CCCC)NC(=O)[C@H](CCC(=O)O)NC(=O)[C@H](CC(=O)O)NC(=O)[C@H](CO)NC(=O)[C@](C)(Cc1ccccc1)NC(=O)[C@H](CO)NC(=O)[C@@H](C)NC(=O)[C@H](Cc1nn[nH]n1)NC(=O)C(C)(C)C(=O)NCCc1c[nH]cn1)[C@@H](C)O)[C@@H](C)CC)C(=O)NC(C)(C)C(=O)N[C@@H](C)C(=O)N[C@@H](CCCCN)C(=O)N[C@@H](CC(=O)O)C(=O)N[C@@H](Cc1ccccc1)C(=O)N[C@H](C(=O)N[C@@H](CC(N)=O)C(=O)N[C@@H](Cc1c[nH]c2ccccc12)C(=O)N[C@@H](CC(C)C)C(=O)N[C@H](C(=O)N[C@@H](CCC(N)=O)C(=O)N[C@H](C(=O)N[C@@H](CCCCN)C(=O)N[C@H](C(=O)N[C@H](C(=O)N[C@@H](CC(=O)O)C(N)=O)[C@@H](C)O)[C@@H](C)CC)[C@@H](C)O)[C@@H](C)CC)[C@@H](C)CC [Example 11] ({Malonyl(2,2-Me2,histaminyl)}-[Ala(1H-tetrazol-5-yl)][dA]S[αMeF]SDE[Nle][dF]TILDLK(Alloc)[Aib]AKDFINWLIQTKITD-NH2) | 
5 | 94.1 | 20000 | 10.90 | 102 | C=CCOC(=O)NCCCC[C@H](NC(=O)[C@H](CC(C)C)NC(=O)[C@H](CC(=O)O)NC(=O)[C@H](CC(C)C)NC(=O)[C@@H](NC(=O)[C@@H](NC(=O)[C@@H](Cc1ccccc1)NC(=O)[C@H](CCCC)NC(=O)[C@H](CCC(=O)O)NC(=O)[C@H](CC(=O)O)NC(=O)[C@H](CO)NC(=O)[C@H](Cc1ccccc1)NC(=O)[C@H](CO)NC(=O)CNC(=O)[C@H](Cc1nn[nH]n1)NC(=O)C(C)(C)C(=O)NCCc1c[nH]cn1)[C@@H](C)O)[C@@H](C)CC)C(=O)N[C@@H](C)C(=O)N[C@@H](C)C(=O)NC(C)(C)C(=O)N[C@@H](CC(=O)O)C(=O)N[C@@H](Cc1ccccc1)C(=O)N[C@H](C(=O)N[C@@H](CC(N)=O)C(=O)N[C@@H](Cc1c[nH]c2ccccc12)C(=O)N[C@@H](CC(C)C)C(=O)N[C@H](C(=O)N[C@@H](CCC(N)=O)C(=O)N[C@H](C(=O)N[C@@H](CCCCN)C(=O)N[C@H](C(=O)N[C@H](C(=O)N[C@@H](Cc1ccccc1)C(N)=O)[C@@H](C)O)[C@@H](C)CC)[C@@H](C)O)[C@@H](C)CC)[C@@H](C)CC [Example 9] ({Malonyl(2,2-Me2,histaminyl)}-[Ala(1H-tetrazol-5-yl)]GSFSDE[Nle][dF]TILDLK(Alloc)AA[Aib]DFINWLIQTKITF-NH2) | 

Row | Compound | Emax (human GLP1 receptor; [1]) [%] | EC50 (human GLP1 receptor; [2]) [pM] | pEC50 (human GLP2 receptor) | Emax (human GLP2 receptor) [%] | Emax (human GLP1 receptor; HEK293, read-out: Human GLP-1R agonist cAMP Emax) [%]
6 | C=CCOC(=O)NCCCC[C@H](NC(=O)[C@H](CC(C)C)NC(=O)[C@H](CC(=O)O)NC(=O)[C@H](CC(C)C)NC(=O)C(C)(C)NC(=O)[C@@H](NC(=O)[C@@H](Cc1ccccc1)NC(=O)[C@H](CCCC)NC(=O)[C@H](CCC(=O)O)NC(=O)[C@H](CC(=O)O)NC(=O)[C@H](CO)NC(=O)[C@H](Cc1ccccc1)NC(=O)[C@H](CO)NC(=O)CNC(=O)[C@H](Cc1nn[nH]n1)NC(=O)C(C)(C)C(=O)NCCc1c[nH]cn1)[C@@H](C)O)C(=O)N[C@@H](C)C(=O)N[C@@H](C)C(=O)NC(C)(C)C(=O)N[C@@H](CC(=O)O)C(=O)N[C@@H](Cc1ccccc1)C(=O)N[C@H](C(=O)N[C@@H](CC(N)=O)C(=O)N[C@@H](Cc1c[nH]c2ccccc12)C(=O)N[C@@H](CC(C)C)C(=O)N[C@H](C(=O)N[C@@H](CCC(N)=O)C(=O)N[C@H](C(=O)N[C@@H](CCCCN)C(=O)N[C@H](C(=O)N[C@H](C(=O)N[C@@H](Cc1ccccc1)C(N)=O)[C@@H](C)O)[C@@H](C)CC)[C@@H](C)O)[C@@H](C)CC)[C@@H](C)CC [Example 5] ({Malonyl(2,2-Me2,histaminyl)}-[Ala(1H-tetrazol-5-yl)]GSFSDE[Nle][dF]T[Aib]LDLK(Alloc)AA[Aib]DFINWLIQTKITF-NH2) |  |  |  | 103 | 93.6
